Data: paper PMC7280144 (Acta Pharmaceutica Sinica. B, 2020)

Target: T1, ATP-binding cassette subfamily G member 2 (ABCG2) (Homo sapiens, UniProt Q9UNQ0)
T1 sequence (Q9UNQ0 1-655): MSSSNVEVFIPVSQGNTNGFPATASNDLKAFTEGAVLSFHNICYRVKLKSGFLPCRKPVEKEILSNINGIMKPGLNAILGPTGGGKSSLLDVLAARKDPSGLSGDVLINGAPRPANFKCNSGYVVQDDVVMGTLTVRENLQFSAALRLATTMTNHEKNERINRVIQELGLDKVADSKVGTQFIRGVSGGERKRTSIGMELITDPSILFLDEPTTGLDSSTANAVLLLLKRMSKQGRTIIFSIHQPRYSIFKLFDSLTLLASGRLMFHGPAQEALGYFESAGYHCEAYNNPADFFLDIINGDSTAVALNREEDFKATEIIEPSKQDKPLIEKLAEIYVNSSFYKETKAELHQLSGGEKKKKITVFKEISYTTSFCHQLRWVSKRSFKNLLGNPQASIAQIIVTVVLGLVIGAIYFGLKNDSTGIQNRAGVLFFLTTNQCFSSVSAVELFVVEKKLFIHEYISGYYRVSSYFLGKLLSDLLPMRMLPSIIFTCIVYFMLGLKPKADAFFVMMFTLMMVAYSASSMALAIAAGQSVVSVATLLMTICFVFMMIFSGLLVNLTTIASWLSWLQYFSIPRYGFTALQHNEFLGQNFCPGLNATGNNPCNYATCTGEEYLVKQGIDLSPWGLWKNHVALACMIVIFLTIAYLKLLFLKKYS
Experiment: competition of […]-IAAP photoaffinity labeling in crude membranes

competition of [125I]-IAAP photoaffinity labeling in crude membranes; also vanad: ~ 5 μmol/L
SMILES: C=CC(=O)Nc1cccc(Nc2nc(Nc3ccc(N4CCN(C(C)=O)CC4)cc3OC)ncc2C(F)(F)F)c1 [rociletinib]
